The text below walks through data of patent US12601734B2, “Methods and uses of enzymatic labeling of ADP-ribose containing molecules” (THE JOHNS HOPKINS UNIVERSITY, priority 2018, dated 2026).

The assay deals with HaCaT cells. In words: ELTA labeling (32P-dATP, sequencing gel) of PAR isolated from H2O2-treated cells. The class given is cell-based. The settings on record: HaCaT cells pre-treated with inhibitor prior to H2O2 induction of PAR (FIG. 6b). The procedure: FIG. 6A-6B illustrates the detection of ADP-ribose length using ELTA. (a) A sequencing gel of the ELTA labeling reaction of ADP-ribose monomer (lane 1), PAR (lane 2), and of ADP-ribose monomer and polymer isolated from in vitro ADP-ribosylated PARP1 by NAD^+ in the presence of the PARP inhibitor Olaparib (lane 3), by NAD^+ for 10 min in the absence of Olaparib (lane 4) and by NAD^+ for 30 min (lane 5). As a comparison, the ADP-ribose monomer and polymer isolated from in vitro ADP-ribosylated PARP1 by NAD+ with a trace of ^32P-NAD+ in the presence of Olaparib for 30 min (lane 6), by NAD^+ for 10 min in the absence of Olaparib (lane 7) and by NAD^+ for 30 min (lane 8). (b) A sequencing gel of the ELTA labeling reaction of ADP-ribose monomer and polymer isolated from in vitro ADP-ribosylated haPARP (lane 1), from untreated cancer cells (lane 2), from cancer cells with DNA damage (lane 3), from cancer cells with DNA damage and treated with PARP inhibitor (lane 4) and from cancer cells with DNA damage and treated with PARG inhibitor (lane 5).
Next, the inventors tested whether ELTA can be used to examine PAR isolated from cells (FIG. 6b). PAR was retrieved from cells using a solid-phase extraction method that allows for the high recovery of PAR without any bias of different chain length. HaCaT cells were either untreated, H2O2-treated to induce PARylation, pre-treated with PARP inhibitor Olaparib prior to H2O2 induction of PAR, or pre-treated with inhibitor against the PAR-degrading enzyme PARG (PDD 00017273) prior to H2O2 induction of PAR. As a control, the inventors also isolated PAR from in vitro modified Herpetosiphon aurantiacus PARP (haPARP), which usually generates PAR of 2-25 mer (lane 1), using the same solid-phase extraction method. As expected, we observed significant PAR signals in H2O2-treated cell samples (FIG. 6b; lane 3), which is longer from the one isolated from haPARP (lane 1). […] Taken together, ELTA can assess the length of PAR isolated in vitro or from cells.

Consider PDD 00017273, for which the “PAR length distribution isolated from cells” value is listed as “stronger signals were observed at a shorter range” and the “PAR signal isolated from cells” value is “enrichment of overall signals”.

For the compound `O=C(c1cc(Cc2n[nH]c(=O)c3ccccc23)ccc1F)N1CCN(C(=O)C2CC2)CC1` [Olaparib], the “PAR signal isolated from cells” value was “reduced the signal to background level”.
